How the values were obtained:
Assay type in all cases: in vivo, human
psoriasis vulgaris = assay: Case reports, treatment of psoriasis vulgaris; conditions: Patient H, inpatient treatment
Source text: A patient suffering from psoriasis vulgaris affecting the whole body started a continuous treatment with black cumin oil for six months after several failed therapies with e.g. Daivobet gel.
A patient suffering from suberythrodermic psoriasis vulgaris with iridocyclitis for 13 years received inpatient treatment to intensify therapy after exacerbation for two weeks and severe itching.
Hyperkeratotic plaques were found between the fingers, discreet macerations between the toes, well defined, deeply red foci at the rima ani, and discreet redness at the penis. The psoriasis area and severity index (PASI) at admission was 36.
During inpatient treatment a therapy with fumaric acid was started; the patient further received Ceterizin and Atarax. […] Local treatments included treatment with dithranol vaseline and kopflanette. Further, the whole integument received baths with soft soap and Balneum-Hermal F. The capillitium received Silix washing oil and betamethasone.
The patient further used Curatoderm emulsion for the face. Intertrigines were treated with Candiohermal and Psorcutan ointment. The PASI at discharge was 14.7.
The further medication after discharge from the hospital included fumaric acid, Loratadin, Psorcutan ointment, urea-containing ointment, and Curatoderm emulsions. […]

psoriasis arthritis = assay: Case report, topical treatment of psoriasis arthritis; conditions: Patient D
Source text: (§1) Various patients have been treated topically with one of the compositions of Example 1 (Recipe N) and Example 2 (Recipe P). These patients were therapy-refractory, i.e. the patients had already been treated with standard therapies to no avail. […] Since the patients had been suffering from their respective diseases for a long time, the treatment with the compositions of the present invention seems to be effective in all stages of the diseases.
A patient suffering from psoriasis arthritis for more than 12 years received a treatment of the entire body with the composition of Example 2 (Recipe P). The composition was used regularly over two months in an amount of 150 g per day. The patient had already undergone several failed standard treatments, including cortisone treatment.

atopic eczema = assay: Case reports, topical treatment of atopic eczema; conditions: Patient B, earlier conventional therapies
Source text: as §1
A patient suffering from atopic eczema for all their life received a continuous treatment of the affected body parts (elbows, neck, face, legs) over one month with the composition of Example 1 (Recipe N) in an amount of 1 to 10 grams in two treatments per day.
A patient suffering from atopic eczema for more than 20 years received a treatment of the affected body parts (elbows, neck, face) with the composition of Example 1 (Recipe N) for two weeks in an amount of 3 grams in two treatments per day. […] The patient stated that they had never felt so good in 20 years.
A patient suffering from atopic eczema from early childhood on, including dryness and severe itching of the affected areas of the skin, received treatment with olive oil two times a week for two months. […] Accordingly, the treatment was discontinued.
A patient suffering from atopic eczema since birth received a continuous treatment with black cumin oil for two days.

SMILES | itching under treatment (psoriasis vulgaris) | outcome of earlier standard treatments (psoriasis arthritis) | outcome of earlier conventional therapy (atopic eczema)
O=C(O)COCCN1CCN(C(c2ccccc2)c2ccc(Cl)cc2)CC1 (stereo not drawn) [Ceterizin] | Itching remained |  | 
C[C@]12CCC(=O)C=C1CC[C@@H]1[C@@H]2C(=O)C[C@@]2(C)[C@H]1CC[C@]2(O)C(=O)CO [cortisone] |  | failed | without any success
